Measurements as given in USRE47193E1, “Selectively substituted quinoline compounds” (EISAI R&D MANAGEMENT CO., LTD., priority 2013, dated 2019).

Test system: NZB/W lupus disease model
Experiment: NZBxNZW (NZB/W) lupus disease model
Assay type: in vivo, mouse
Settings: for mortality: 33, 100 or 300 mg/kg QD PO, 21 weeks of treatment; for impact on anti-dsDNA titers: after 17 weeks of dosing, at 46 weeks of age
Protocol: FIG. 2A through FIG. 2C show results of testing ER-899742 in the NZBxNZW strain (abbreviated hereafter as NZBWF1/J or NZB/W) lupus disease model. Figure Legend: Female NZBWF1/J mice were received at 5 weeks of age, baseline bleeds were performed, and mice were monitored for disease progression by following anti-dsDNA titers. At 27 weeks of age, mice were randomized into groups with equivalent median anti-dsDNA titers and treated at 29 weeks of age with Vehicle (Veh; 0.5% methyl-cellulose) alone or 33, 100, or 300 mg/kg once-a-day orally (QD PO). At 46 weeks of age after 17 weeks of treatment mice were bled and tested for anti-dsDNA titers. All mice were sacrificed at 50 weeks of age (21 weeks of compound treatment). (FIG. 2A) Just prior to termination at 50 weeks of age (following 21 weeks of treatment), urine was collected from individual mice, and the Urinary Albumin Creatinine Ratio (UACR, proteinuria) was determined for each animal as an indirect measure of kidney function. (FIG. 2B) Timecourse of mortality observed in this study for the highest and lowest dose groups. […] (FIG. 2C) Impact of treatment on anti-dsDNA titers after 17 weeks of dosing, at 46 weeks of age.
FIG. 4A through FIG. 4C show results of testing ER-899464 in the NZB/W disease model in the same experiment as FIG. 2A. Figure Legend: (FIG. 4A) Just prior to termination at 50 weeks of age (following 21 weeks of treatment), urine was collected from individual mice, and the Urinary Albumin Creatinine Ratio (UACR, proteinuria) was determined for each animal as an indirect measure of kidney function. (FIG. 4B) Summary of mortality observed in this study for the highest and lowest dose groups. […] ([…]) Impact of treatment on anti-dsDNA titers after 17 weeks of dosing, at 46 weeks of age.
Mouse Lupus Disease Models.
Mouse lupus disease model strains. Female NZBWF1/J mice were purchased from Jackson Labs (Bar Harbor, Me.), both of which manifest with spontaneous lupus disease. Female DBA/1 mice were purchased from Harlan Laboratories (Indianapolis, Ind.) and at the indicated ages given an intraperitoneal injection of 0.5 ml pristane (2,6,10,14-Tetramethylpentadecane; Sigma, St. Louis, Mo.) to chemically induce lupus disease or of 0.5 ml PBS to generate age-matched, non-diseased control mice.
Female NZBWF1/J mice were received at 5 weeks of age, baseline bleeds were performed, and mice were monitored for disease progression by following anti-dsDNA titers. At 27 weeks of age, mice were randomized into groups with equivalent median anti-dsDNA titers and treated at 29 weeks of age with Vehicle (Veh; 0.5% methyl-cellulose) alone or 33, 100, or 300 mg/kg once-a-day orally (QD PO). At 46 weeks of age after 17 weeks of treatment, mice were bled and tested for anti-dsDNA titers. All mice were sacrificed at 50 weeks of age (21 weeks of compound treatment).
At the end of the experiment kidneys were collected from the animals tested in FIG. 2A through 2C, fixed in 10% formalin for 24 hours, embedded in paraffin, and H&E stained sections were generated for histopathology assessment in a blinded fashion (Grade 0/1+: WNL to minimal; Grade 2: Mild; Grade 3: Moderate to Marked; Grade 4: Severe).
Assessment of auto-antibody titers by ELISA. Anti-dsDNA, -Sm/nRNP, -RiboP, and -Histone titers were evaluated by standard ELISA approach. Briefly, 96-well EIA/RIA ELISA plates (Corning) were coated with 100 ul of diluted antigen in PBS for 90 minutes at room temperature as follows (final concentrations indicated): 10 U/ml Sm/nRNP complex (Immunovision), 10 ug/ml calf thymus dsDNA (Sigma), 5 U/ml RiboP (Immunovision), and 5 ug/ml Histone (Immunovision). Plates were washed with PBS/0.05% Tween20 (washing buffer) and blocked overnight with PBS/1% BSA (blocking buffer) at 4° C. […]

[1] = several doses between 33 and 300 mg/kg

Row | Compound | mortality | impact on anti-dsDNA titers | proteinuria (UACR) [1] | survival [1] | % combined incidence of Grade 3 and 4 (33 mpk) [%] | Number of mice with GN Score 0 (33 mpk QD PO, kidney histopathology, Grade 0/1+: WNL to minimal) | Number of mice with GN Score 2+ (33 mpk, Grade 2: Mild) | Number of mice with GN Score 3+ (33 mpk, Grade 3: Moderate to Marked) | Number of mice with GN Score 4+ (33 mpk, Grade 4: Severe) | % combined incidence of Grade 3 and 4 (100 mpk) [%] | Number of mice with GN Score 0 (100 mpk) | Number of mice with GN Score 2+ (100 mpk) | Number of mice with GN Score 3+ (100 mpk) | Number of mice with GN Score 4+ (100 mpk) | % combined incidence of Grade 3 and 4 (300 mpk) [%] | Number of mice with GN Score 0 (300 mpk) | Number of mice with GN Score 2+ (300 mpk) | Number of mice with GN Score 3+ (300 mpk) | Number of mice with GN Score 4+ (300 mpk) | histological signs of glomerulonephritis [1]
1 | C[C@@H]1CN(c2ccc(C#N)c3ncccc23)C[C@H](C(=O)NC2CCN(C)CC2)O1 [ER-899464, (2R,6R)-4-(8-cyanoquinolin-5-yl)-6-methyl-N-(1-methylpiperidin-4-yl)morpholine-2-carboxamide] | No mortality was seen in the middle dose group | No statistically significant effect was observed | significantly reduced proteinuria | significant survival benefit |  |  |  |  |  |  |  |  |  |  |  |  |  |  |  | 
2 | C[C@@H]1CN(c2ccc(C#N)c3ncccc23)C[C@H](C(=O)N[C@H]2CNC[C@H]2F)O1.Cl [ER-899742, (2R,6R)-4-(8-cyanoquinolin-5-yl)-N-[(3S,4R)-4-fluoropyrrolidin-3-yl]-6-methylmorpholine-2-carboxamide hydrochloride] | No mortality was seen with compound treatment | No statistically significant effect was observed | significantly reduced proteinuria | pronounced survival benefit | 11 | 11 | 5 | 1 | 1 | 6 | 15 | 1 | 1 | 0 | 11 | 9 | 7 | 0 | 2 | significantly reduced
